Source: patent US11865125B2, “APKC inhibitors and methods of treating a neurodegenerative disease or disorder” (UNIVERSITY OF SOUTH FLORIDA, priority 2016, dated 2024)
“Also recorded” adds a separate entry of the source.

Assays:
[1] = passage of the blood brain barrier; assay type: in vivo, mouse; settings: intact mice, inferred from inhibition of brain PKC-λ/ι
recombinant PKC-ι = biological target: T1, recombinant PKC-ι (Homo sapiens, UniProt P41743); settings: cited from earlier work
T1 sequence (P41743 1-596): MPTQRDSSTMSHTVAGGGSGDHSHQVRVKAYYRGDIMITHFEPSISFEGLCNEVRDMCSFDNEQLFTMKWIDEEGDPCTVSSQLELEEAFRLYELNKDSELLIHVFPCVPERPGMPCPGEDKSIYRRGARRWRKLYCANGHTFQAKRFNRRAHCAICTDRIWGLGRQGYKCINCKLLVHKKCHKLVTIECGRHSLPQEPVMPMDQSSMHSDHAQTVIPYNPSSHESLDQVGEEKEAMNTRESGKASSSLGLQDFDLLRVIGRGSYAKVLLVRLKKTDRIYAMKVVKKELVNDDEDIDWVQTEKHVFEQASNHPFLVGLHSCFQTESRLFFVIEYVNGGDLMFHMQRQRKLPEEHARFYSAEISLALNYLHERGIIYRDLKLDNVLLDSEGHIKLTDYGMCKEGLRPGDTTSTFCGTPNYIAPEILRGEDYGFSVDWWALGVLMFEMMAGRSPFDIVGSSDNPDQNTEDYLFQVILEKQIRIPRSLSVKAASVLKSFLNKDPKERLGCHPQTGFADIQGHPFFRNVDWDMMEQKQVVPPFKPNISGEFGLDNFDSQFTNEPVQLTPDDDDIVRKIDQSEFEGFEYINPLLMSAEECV

[2] = tested on: conventional PKCs, novel PKCs, AMP-dependent protein kinase and Akt; settings: cited from earlier work
Aβ1-40/42 = test: brain Aβ1-40/42 peptide levels in mice; assay type: in vivo, mouse
Source text: (§1) Mouse Studies. Brain samples were obtained from normal and insulin-resistant mice and monkeys used previously, and includes mice originally used in studies of insulin signaling and resistance in liver: (a) 4-6 month old C57Bl/6 mice used in studies of high-fat-feeding [USF Vivarium] [6]; 4-6 month-old male C57Bl/6 ob/ob and lean ob+ mice (Jackson Labs, Bar Harbor, Maine); and (c) 10-12 month-old C57Bl/6 Het-MλKO mice [USF Vivarium] [8]. […] Where indicated normal mice were given a single SC injection of saline or saline containing 1.5 mg/kg ICAPP to follow time-related alterations in brain signaling factors. Where indicated, mice were treated intraperitoneally (IP) with insulin (1 U/kg body weight) or vehicle 15-min before euthanization by administration of Xylazine/Ketamine, followed by whole body perfusion with phosphate-buffered saline and rapid removal of brain and other tissues.
(§2) Tissue Preparations. As described, mouse brains were hemisected sagittally, and one-half was frozen in liquid N2, stored at −80° C., and samples thereof were homogenized in buffer containing 0.25M sucrose, 20 mM Tris/HCl (pH, 7.5), 2 mmol/l EGTA, 2 mM EDTA, 1 mM phenlysulfonoylfluoride (PMSF), 20 μg/ml leupeptin, 10 μg/ml aprotinin, 2 mM Na4P2O7, 2 mM Na3VO4, 2 mM NaF, and 1 μM microcystin, and then supplemented with 1% TritonX-100, 0.6% Nonidet and 150 mM NaCl.
(§3) Western Analyses. As described, Western analyses were conducted with rabbit antisera or mouse monoclonal antibodies (mMab), using: anti-aPKC (Santa Cruz Biotechnologies, Santa Cruz, CA); anti-phospho-threonine-560/555-PKC-ζ/λ/ι (Invitrogen, Carlsbad, CA); anti-p-serine-256-FoxO1 and anti-FoxO1 (Abnova, Walnut, CA); anti-Akt (mMab), anti-phospho-serine-473-Akt, anti-phospho-serine-9-GSK3P anti-GSK313, anti-phospho-serine-253-FoxO3a, anti-FoxO3a, anti-phospho-serine-256-FoxO1, anti-phospho-serine-193-FoxO4; anti-FoxO1, anti-phospho-serine-2448-mTOR, anti-mTOR, anti-β-amyloid (anti-5-10 kDa-Aβ1-40/42) and anti-amyloid precursor protein (anti-120 kDa-APP) (Cell Signaling Technologies, Danvers, MA); and anti-phospho-serine-202-tau, anti-phospho-threonine-231-tau (Gene Tex, Irvine, CA). Samples from experimental groups were compared on the same blots, and routinely checked with loading controls. Note that: insulin-sensitive 70 kDa aPKC is largely PKC-ζ in mouse brain and orthologous PKC-ι (98% aa homology) in monkey and other primate brains; brain PKC-ζ exists largely as a 50 kDa moiety that, lacking a regulatory domain, is constitutively-active and unresponsive to insulin.
(§4) Where indicated, mice were randomly treated with insulin (1 unit/kg/bw i.p.) 15 min before being euthanized by administration of xylazine/ketamine, followed by whole-body perfusion with PBS and rapid removal of brain and other tissues.

70 kDa PKC-λ/ι = biological target: T2, 70 kDa PKC-λ/ι (Mus musculus, UniProt Q62074); test: brain aPKC (PKC-λ/ι) phosphorylation/activity in mice; assay type: in vivo
T2 construct: insulin-sensitive 70 kDa PKC-λ/ι in brains of Het-MλKO mice; from tissue; host or cells: mouse brain homogenate
T2 sequence (Q62074 1-595): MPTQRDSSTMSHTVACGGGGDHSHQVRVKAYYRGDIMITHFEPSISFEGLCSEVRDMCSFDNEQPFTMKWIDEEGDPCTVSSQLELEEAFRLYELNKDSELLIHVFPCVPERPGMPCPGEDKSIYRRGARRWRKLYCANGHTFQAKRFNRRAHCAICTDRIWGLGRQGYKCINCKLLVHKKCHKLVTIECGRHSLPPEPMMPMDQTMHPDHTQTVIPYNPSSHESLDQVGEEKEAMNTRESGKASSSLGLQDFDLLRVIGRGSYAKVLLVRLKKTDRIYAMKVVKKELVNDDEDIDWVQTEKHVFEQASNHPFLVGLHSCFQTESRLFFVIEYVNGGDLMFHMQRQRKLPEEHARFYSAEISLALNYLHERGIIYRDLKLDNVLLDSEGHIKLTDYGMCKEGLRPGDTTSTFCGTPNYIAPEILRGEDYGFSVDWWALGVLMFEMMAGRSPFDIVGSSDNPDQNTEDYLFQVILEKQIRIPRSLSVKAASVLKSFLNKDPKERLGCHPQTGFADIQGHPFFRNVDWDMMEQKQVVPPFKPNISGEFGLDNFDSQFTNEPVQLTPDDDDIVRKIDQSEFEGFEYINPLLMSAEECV
Source text: as §1, §2, §3, §4

[3] = tested on: Akt substrates, GSK3β and mTOR; test: phosphorylation of Akt substrates in LA1-5s neuroblastoma cells; assay type: cell-based, human; settings: LA1-5s cells, 200 nM insulin, data not shown
Experimental: Relative bar values in panel a are mean±SEM of 6 determinations. Asterisks: *, P<0.05; **, P<0.01; ***, P<0.001 (ANOVA). Values in panel b are means of 2-4 determinations.
as §3

[4] = Het-MλKO mice, s.c. once daily for 8 days (ICAPP 0.4 mg/kg, ATM 60 mg/kg)
[5] = Het-MλKO mice, s.c. once daily for 8 days (ICAPP 0.4 mg/kg, ATM 60 mg/kg), insulin 1 U/kg i.p. 15 min
[6] = normal mice, single s.c. dose of ICAPP 1.5 mg/kg, insulin 1 U/kg i.p. 15 min before killing

NC(=O)c1ncn([C@@H]2C[C@H](COP(=O)(O)O)[C@@H](O)[C@H]2O)c1N [ICAPP]
passage of the blood brain barrier (BBB) [1]: can cross the BBB
inhibition of recombinant PKC-ι (recombinant PKC-ι): preferentially inhibit recombinant PKC-ι
IC50 (recombinant PKC-ι; previously seen, stated as similar, read-out: IC50, inhibition of recombinant PKC-λ/ι): 1 to 10 nM
inhibition of conventional PKCs, novel PKCs, AMP-dependent protein kinase and Akt [2]: Neither ICAPP [8] nor ACPD [6,7] inhibit
resting/basal brain Aβ1-40/42 peptide levels (Aβ1-40/42; [4]): returned to normal
acute insulin-induced increase in brain Aβ1-40/42 levels (Aβ1-40/42; [5]): comparable loss in the ability of insulin to acutely increase Aβ1-40/42 levels; also recorded: abrogated
insulin-dependent brain Aβ1-40/42 peptide levels (Aβ1-40/42; [6]): time-related, well-correlated decreases; also recorded: blocked acute effects of insulin
resting/basal brain aPKC (PKC-λ/ι) activity (70 kDa PKC-λ/ι; [4]): diminished; also recorded: reductions of resting/basal activities of brain Akt and aPKC, comparable to those seen with ATM treatment
acute insulin activation of brain aPKC (PKC-λ/ι) (70 kDa PKC-λ/ι; [5]): blocked the ability of insulin to activate PKC-λ/ι; also recorded: abrogated
insulin-dependent brain PKC-λ/ι (aPKC) activity (70 kDa PKC-λ/ι; [6]): time-related, well-correlated decreases; also recorded: blocked acute effects of insulin
effect on insulin-stimulated phosphorylation of Akt substrates [3]: without altering
